The results in this text go back to patent US20110039763A1, “TARGETED ANTIMICROBIAL MOIETIES” (C3 JIAN, INC., priority 2009, published 2011).

“Also recorded” adds a separate entry of the source.

Assay [1] has as its system microorganisms. As to the kind of experiment: Targeting peptide binding to target microorganisms (Tables 3, 10, 12). To be noted: microorganism(s) the targeting peptide binds; binding in aqueous buffers varied with peptide solubility, preferably 1x PBS.
The test system of assay [2] is microorganisms. In words: Morphology, biofilm and growth disrupting peptides (Table 5). It counts as cell-based. The arrangement: key: A: Peptide aggregates; B: Less hyphal formation; Clumps; Diffuse clumps and small polyps; F: Diffuse growth; H: Thin; I: Growth inhibition; Microcolony formation; Rippled; Small polyps; Thick; W: Halo formation on top, microlonies on bottom. An excerpt:
In certain embodiments peptides that induce alterations in phenotype or other biological activities can also be used as antimicrobial effector moieties.

Assay [3] deals with microorganisms. In words: Peptide activities: targeting/binding, antimicrobial, growth or phenotype altering (Tables 7, 8). It counts as cell-based. The conditions noted are these: peptides having multiple activities.

With “PF-746: peptide having multiple activities (FLGNSQYFTRK; Peptide with targeting and/or antimicrobial activity)”, in the assay on microorganisms [1], the “Target(s)” value is given as “S. epidermidis; also recorded: M. luteus; also recorded: E. coli; also recorded: C. albicans; also recorded: S. pneumoniae; also recorded: E. faecalis; also recorded: C. jeikeium”. In addition, the “Organism, effect” value with microorganisms [2] (E. coli) is “E. coli (C)”; in the assay with microorganisms [2] (M. luteus), “M. luteus (C)”; in the assay with microorganisms [2] (MRSA) it was “MRSA (C)”; in the assay with microorganisms [2] (P. aeruginosa), “P. aeruginosa (A)”; with microorganisms [2] (S. epidermidis) it was “S. epidermidis (C)”; in the assay with microorganisms [2] (S. mutans), “S. mutans (D)”. Also, in the assay with microorganisms [2] (S. pneumoniae), the “Organism, effect” value is “S. pneumoniae (C)”. Also, the Activities entry in the assay on microorganisms [3] is given as “G B”.
Regarding “PF-756: peptide having multiple activities (DALLRLA; Peptide with targeting and/or antimicrobial activity)”, the “Target(s)” value in the assay with microorganisms [1] was “S. epidermidis and M. luteus and C. albicans and MRSA and C. jeikeium”. For the same substance, the “Organism, effect” value in the assay on microorganisms [2] (S. pneumoniae) is recorded as “S. pneumoniae (A)”. The Activities entry with microorganisms [3] is “G B”.
In the case of “PF-757: peptide having multiple activities (PQAISSVQQNA; Peptide with targeting and/or antimicrobial activity)”, the “Target(s)” value with microorganisms [1] was “M. luteus and C. albicans and MRSA”. Moreover, the “Organism, effect” value with microorganisms [2] (S. pneumoniae) was “S. pneumoniae (H)”. Moreover, in the assay with microorganisms [3], the Activities entry is “G B”.
On to “PF-760: peptide having multiple activities (DHITLDDYEIHDGFNFELYYG; Peptide with targeting and/or antimicrobial activity)”, for which, in the assay with microorganisms [1], the “Target(s)” value is recorded as “S. epidermidis; also recorded: M. luteus”. The “Organism, effect” value is “MRSA (M)” in the assay on microorganisms [2] (MRSA), “S. epidermidis (M)” with microorganisms [2] (S. epidermidis) and “S. pneumoniae (C)” in the assay with microorganisms [2] (S. pneumoniae). The Activities entry in the assay with microorganisms [3] is recorded as “G B”.
For “PF-761: peptide having multiple activities (SKFELVNYASGCSCGADCKCASETECKCASKK; Peptide with targeting and/or antimicrobial activity)”, in the assay on microorganisms [1], the “Target(s)” value was “S. epidermidis and M. luteus and P. mirabilis and P. aeruginosa and C. albicans and MRSA and S. pneumoniae and E. faecalis”. Also, the “Organism, effect” value is “E. coli (C)” in the assay with microorganisms [2] (E. coli); “M. luteus (C)” in the assay on microorganisms [2] (M. luteus); “MRSA (D)” in the assay on microorganisms [2] (MRSA); “P. aeruginosa (C)” in the assay on microorganisms [2] (P. aeruginosa); “S. epidermidis (C)” in the assay with microorganisms [2] (S. epidermidis); “S. mutans (D)” with microorganisms [2] (S. mutans). In the assay on microorganisms [2] (S. pneumoniae), the “Organism, effect” value is reported as “S. pneumoniae (C)”. The Activities result in the assay with microorganisms [3] is listed as “G B”.
“PF-762: peptide having multiple activities (PAPAPSAPAPAPEQPEQPA; Peptide with targeting and/or antimicrobial activity)”: the “Target(s)” value in the assay on microorganisms [1] is on record as “M. luteus; also recorded: C. albicans”. Also, the “Organism, effect” value in the assay on microorganisms [2] (S. pneumoniae) was “S. pneumoniae (H)”. Besides, the Activities result in the assay with microorganisms [3] was “G B”.
As for “PF-764: peptide having multiple activities (GYFEPGKRD; Peptide with targeting and/or antimicrobial activity)”, the “Target(s)” value with microorganisms [1] was “S. epidermidis and M. luteus and C. albicans and MRSA and S. pneumoniae and E. faecalis and C. jeikeium”. The figures for the “Organism, effect” value in the assay with microorganisms [2] (MRSA) and in the assay with microorganisms [2] (S. pneumoniae) were “MRSA (D)” and “S. pneumoniae (H)”, respectively. Also, in the assay with microorganisms [3], the Activities result was “G B”.
